The experiment relates to senescent MCF7 cells. Nature of the experiment: Senolytic activity on doxorubicin-induced senescent MCF7 cells (crystal violet cell survival). It is filed as cell-based, human. To be noted: 72 h treatment; vitamin C and palmitic acid administered alone at the same doses investigated. The procedure: Briefly, senescence of MCF7 human mammary epithelium cells (human breast adenocarcinoma cells, ATCC® HTB-22™) was induced in vitro by treatment with doxorubicin (for 24 h), at a non-apoptotic concentration (200 nM), and subsequent cell recovery (in optimal culture medium, without treatments) for 10 days. The successful conversion to the senescent cell phenotype was confirmed by morphological changes (flattening and cell enlargement) and positivity for lysosomal beta-galactosidase (β-GAL). The SA-β-GAL (senescence-associated p-GAL) senescence assay was performed with the SA-β-Gal Staining Kit (Cell Signaling Technology, Inc., Danvers, MA). In this case, after fixation with […] for 15 min at room temperature, the senescent cells were quantified by calculating the percentage of SA-β-GAL positive cells (colored blue) present in culture, examining ≥200 cells per well with the phase contrast microscope EVOS XL Cell Imaging System (Thermo Fisher; objective, 40×). […] At the end of the treatments, cell survival was quantified by crystal violet staining. […] After further washing with water (3×), 100 μl of acetic acid (10%) were added per well and the absorbance (λ=590 nm) measured with a Synergy spectrophotometer (AHSI). […] Senolytic activity was expressed as % of senescent cells eliminated with respect to the control condition (DMSO). […]

With `CCCCCCCCCCCCCCCC(=O)O` [palmitic acid], the “senolytic effects (in words)” value is recorded as “absence of significant senolytic effects”.
With `O=C1O[C@H]([C@@H](O)CO)C(O)=C1O` [vitamin C, L-Ascorbic Acid], the “senolytic effects (in words)” value is reported as “absence of significant senolytic effects”.

Source of the values: patent US20240024280A1, “SENOTHERAPEUTIC SUBSTANCE” (BIONEXA S.R.L, priority 2020, published 2024).
